From patent US12403153B2, “Nicotinamide mononucleotide derivatives and use thereof in the treatment and prevention of a red blood cell disorder” (Nuvamid SA, priority 2020, dated 2025)

How the values were obtained:
Format in all cases: in vivo
Townes S/S mice [1] = assay: Concentration of red blood cells in blood of SCD-model mice; conditions: for effect on concentration of RBC in blood: i.p. once per day D0 to D15 (compound 001 185 mg/kg, L-Gln 180 mg/kg), under normoxia and hypoxia, vs vehicle or L-Gln
Experimental: (§1) The purpose of this study is to evaluate the effects of i.p. daily administration of compound 001 at 185 mg/kg and/or L-Glutamine (L-Gln) at 180 mg/Kg on hematological parameters and RBC sickling. L-Gln has received approval by the FDA for the treatment of sickle cell disease (SCD) patients in the United States as it has been shown that L-Gln administration reduces the severity and frequency of VOCs. Townes S/S mice on a 129/B6 mixed genetic background aged 8-12 weeks. The powder of compound 001 (185 mg/kg) was dissolved in vehicle (the solution is used at room temperature for maximum 1 day). The powder of L-Glutamine (180 mg/kg) was dissolved in vehicle (the solution is used at room temperature for maximum 1 day). In Townes S/S mice, mouse alpha- and beta-globin gene loci are deleted and replaced by human genes coding for the alpha- and beta-globin. When carrying two copies of the beta S allele, mice develop a human sickle disease phenotype with sickle-shaped red blood cells are seen in blood smears. Group description: • Group 1: Vehicle PBS (i.p.) • Group 2: Compound 001 (185 mg/kg) • Group 3 L-Gln (180 mg/kg) • Group 4: Compound 001 (185 mg/kg)+L-Gln (180 mg/kg) Mice were i.p treated with Compound 001, L-Gln or the combination of compound 001+L-Gln during all the experiment (D0 to D15) once per day. Last injection occurred 24 hours before sacrifice. Retro-orbital blood collection was performed at the inclusion and at D15. Ex-vivo blood collected were assessed for blood parameters and RBC sickling ex vivo under normoxia (20% Oz) and hypoxia (1% Oz for 0.5 hour).

Townes S/S mice [2] = assay: Hemoglobin concentration in blood of SCD-model mice; conditions: for effect on hemoglobin concentration in blood: i.p. once per day D0 to D15 (compound 001 185 mg/kg, L-Gln 180 mg/kg), under normoxia and hypoxia, vs vehicle or L-Gln
Experimental: as §1

Townes S/S mice [3] = assay: Hematocrit percentage in blood of SCD-model mice; conditions: for effect on hematocrit percentage in blood: i.p. once per day D0 to D15 (compound 001 185 mg/kg, L-Gln 180 mg/kg), under normoxia and hypoxia, vs vehicle or L-Gln
Experimental: as §1, with “hour). […] III. CONCLUSION” for “hour).”

F-cells = assay: Percentage of F-cells using antibodies against fetal hemoglobin by FACS, blood of treated SCD mice; conditions: Townes S/S mice; for effect on proportion of circulating erythroid cells expressing fetal hemoglobin (conclusion): 185 mg/kg i.p. daily D0 to D15
Experimental: (§2) The aim of the present study was to evaluate, the effects of i.p. daily administration of compounds 001, 010 and 011 at 185 mg/kg as modulator of red blood cell sickling and fetal hemoglobin expression in erythroid cells and its potential role in therapy for sickle cell disease on mouse model of SCD.
(§3) Townes S/S mice on a 129/B6 mixed genetic background.
(§4) The powders of compounds 001, 010 and 011 (185 mg/kg) were dissolved in vehicle (the solution is used at room temperature for maximum 1 day). A fresh sample for each administration was prepared every day except the week-end (the solution is prepared on Saturday and is used on Saturday and Sunday).
(§5) In Townes S/S mice, mouse alpha- and beta-globin gene loci are deleted and replaced by human alpha- and beta-globin genes. When carrying two copies of the beta S allele, mice develop a human sickle disease phenotype with sickle-shaped red blood cells are seen in blood smears.
(§6) Group description: • Group 1: Vehicle (i.p.) • Group 2: compound 001 (185 mg/kg) • Group 3 compound 010 (185 mg/kg) • Group 4: compound 011 (185 mg/kg)
(§7) Mice were i.p treated with compounds 001, 010 and 011 during all the experiment (D0 to D15) once per day. Last injection occurred 24 hours before sacrifice.
(§8) Retro-orbital blood collection was performed at the inclusion D0 and at D5, D10 and D15 through facial vein bleeding.
(§9) Ex-vivo blood collected were assessed for percentage of F-cells using antibodies against fetal hemoglobin by FACS and reticulocyte counts using reticount by FACS. Red blood cells sickling was assessed under hypoxia.

SS RBCs = assay: RBC sickling under hypoxia ex vivo, RBCs from treated SCD mice; conditions: Townes S/S mice; for effect on red blood cell sickling under hypoxia (conclusion): 185 mg/kg i.p. daily D0 to D15; for percentage of sickling cells at D0 / percentage of sickling cells after 15 days treatment: 185 mg/kg/d i.p., RBCs ex vivo 30 minutes hypoxia (1% Oz)
Experimental: as §2, §3, §4, §5, §6, §7, §8, §9
FIGS. 3, 4 and 5 show the ability of compounds 001 (FIG. 3), 010 (FIG. 4) and 011 (FIG. 5) to prevent sickling of SS RBCs at a 1% Oz. SS RBCs from treated mice and collected at D0, D5, D10 and D15 were submitted to hypoxia for 30 minutes in a hypoxic chamber (1% Oz). Percentage of sickling RBCs was then assessed for each time point with compounds 001, 010 and 011.

reticulocytes = assay: Reticulocyte counts using Reticount by FACS, blood of treated SCD mice; conditions: Townes S/S mice, 185 mg/kg/d i.p.
Experimental: The aim of the present study was to evaluate, the effects of i.p. daily administration of compounds 001, 010 and 011 at 185 mg/kg as modulator of red blood cell sickling and fetal hemoglobin expression in erythroid cells and its potential role in therapy for sickle cell disease on mouse model of SCD. Townes S/S mice on a 129/B6 mixed genetic background. The powders of compounds 001, 010 and 011 (185 mg/kg) were dissolved in vehicle (the solution is used at room temperature for maximum 1 day). A fresh sample for each administration was prepared every day except the week-end (the solution is prepared on Saturday and is used on Saturday and Sunday). In Townes S/S mice, mouse alpha- and beta-globin gene loci are deleted and replaced by human alpha- and beta-globin genes. When carrying two copies of the beta S allele, mice develop a human sickle disease phenotype with sickle-shaped red blood cells are seen in blood smears. Group description: • Group 1: Vehicle (i.p.) • Group 2: compound 001 (185 mg/kg) • Group 3 compound 010 (185 mg/kg) • Group 4: compound 011 (185 mg/kg) Mice were i.p treated with compounds 001, 010 and 011 during all the experiment (D0 to D15) once per day. […] Ex-vivo blood collected were assessed for percentage of F-cells using antibodies against fetal hemoglobin by FACS and reticulocyte counts using reticount by FACS. Red blood cells sickling was assessed under hypoxia.

[4] = 185 mg/kg/d i.p., hypoxia (1% Oz for 0.5 hour) vs normoxia

Compound | effect on concentration of RBC in blood (Townes S/S mice [1]) | effect on hemoglobin concentration in blood (Townes S/S mice [2]) | effect on hematocrit percentage in blood (Townes S/S mice [3]) | effect on proportion of circulating erythroid cells expressing fetal hemoglobin (conclusion) (F-cells) | effect on red blood cell sickling under hypoxia (conclusion) (SS RBCs) | percentage of sickling cells at D0 (SS RBCs) | percentage of sickling cells after 15 days treatment (SS RBCs) | mean F-cells after treatment (F-cells; 185 mg/kg/d i.p., over the 15 days treatment) | mean F-cells, starting value (F-cells; 185 mg/kg/d i.p., value before the 15 days treatment) | percentage of reticulocytes after treatment (reticulocytes; over the 15 days treatment) | percentage of reticulocytes, starting value (reticulocytes; value before the 15 days treatment) | effect of hypoxia on RBC in blood of treated mice (Townes S/S mice [1]; [4]) | effect of hypoxia on hemoglobin in blood of treated mice (Townes S/S mice [2]; [4]) | effect of hypoxia on hematocrit percentage in blood of treated mice (Townes S/S mice [3]; [4])
NC(=O)CC[C@H](N)C(=O)O [L-Gln, L-Glutamine, reference compound] | did not affect | did not affect | did not affect |  |  |  |  |  |  |  |  |  |  | 
α,α-diNMN [Compound 011] |  |  |  | increase the proportion of circulating erythroid cells expressing fetal hemoglobin | reduce red blood cell sickling under hypoxia | 31% | 20% |  |  |  |  |  |  | 
α,β-diNMN [Compound 010] |  |  |  | increase the proportion of circulating erythroid cells expressing fetal hemoglobin | reduce red blood cell sickling under hypoxia | 32% | less than 15% |  |  |  |  |  |  | 
NC(=O)c1ccc[n+]([C@@H]2O[C@H](COP(=O)([O-])O)[C@@H](O)[C@H]2O)c1 (stereo in doubt) [Compound 001, NMN] | significant increase | significant increase | significant increase | increase the proportion of circulating erythroid cells expressing fetal hemoglobin | reduce red blood cell sickling under hypoxia | 40% | less than 10% | 8% | less than 5% | 30% | 70% | did not result in a decrease | did not result in a decrease | did not result in a decrease
